Assay results reported in publication PMC4839570, “Novel Anthra[1,2-c][1,2,5]Thiadiazole-6,11-Diones as Promising Anticancer Lead Compounds: Biological Evaluation, Characterization & Molecular Targets Determination” (PLoS ONE, 2016).
Read-outs that look alike come from different tables or passages of the source.

Assays:
MOLT-4 = assay: NCI-60 cytotoxicity screen; type: cell-based
HCC-2998 = assay: NCI-60 cytotoxicity screen; type: cell-based
MKN74 = assay: JFCR-39 cytotoxicity screen; type: cell-based
UACC-257 = assay: NCI-60 cytotoxicity screen; type: cell-based
OVCAR-3 [1] = assay: cells; settings: Homo sapiens, OVCAR-3, read-out: mean log10 of the GI50 values (converted)
MDA-MB-435 = assay: NCI-60 cytotoxicity screen; type: cell-based
OVCAR-5 = assay: JFCR-39 cytotoxicity screen; type: cell-based
CCRF-CEM = assay: NCI-60 cytotoxicity screen; type: cell-based
SK-MEL-28 = assay: NCI-60 cytotoxicity screen; type: cell-based
LOX-IMVI = assay: JFCR-39 cytotoxicity screen; type: cell-based
CAKI-1 = assay: NCI-60 cytotoxicity screen; type: cell-based
ACHN = assay: NCI-60 cytotoxicity screen; type: cell-based
SNB-78 = assay: JFCR-39 cytotoxicity screen; type: cell-based
UO-31 = assay: NCI-60 cytotoxicity screen; type: cell-based
NCI-H322M = assay: NCI-60 cytotoxicity screen; type: cell-based
ST-4 = assay: JFCR-39 cytotoxicity screen; type: cell-based
OVCAR-3 [2] = settings: JFCR
RXF 393 = assay: NCI-60 cytotoxicity screen; type: cell-based
MDA-MB-468 = assay: NCI-60 cytotoxicity screen; settings: Homo sapiens, MDA-MB-468, read-out: mean log10 of the GI50 values (converted)
LOX IMVI = assay: NCI-60 cytotoxicity screen; type: cell-based
NCI-H522 [3] = assay: JFCR-39 cytotoxicity screen; type: cell-based
MDA-MB-231/ATCC = assay: NCI-60 cytotoxicity screen; type: cell-based
NCI-H522 [4] = assay: NCI-60 cytotoxicity screen; type: cell-based
COLO 205 = assay: NCI-60 cytotoxicity screen; type: cell-based
SK-MEL-2 = assay: NCI-60 cytotoxicity screen; type: cell-based
KM12 = assay: NCI-60 cytotoxicity screen; type: cell-based
SNB-75 = assay: JFCR-39 cytotoxicity screen; type: cell-based
NCI-H460 = assay: JFCR-39 cytotoxicity screen; type: cell-based
MCF7 = assay: NCI-60 cytotoxicity screen; type: cell-based
HCT-116 = assay: NCI-60 cytotoxicity screen; type: cell-based
[5] = Homo sapiens, Fig 7, read-out: mean log10 of the GI50 values (converted)
[6] = Homo sapiens, five-dose, read-out: GI50
[7] = Homo sapiens, five-dose, read-out: LC50 (the source's name)
[8] = Homo sapiens, read-out: LC50 (the source's name)

SMILES: O=C1c2ccccc2C(=O)c2c1ccc1nsnc21 [NSC745885, anthra[1,2-c][1,2,5]thiadiazole-6,11-dione]
- GI50 (MOLT-4; [5]): 0.891 µM
- GI50 (MOLT-4; [6]): 0.49 µM
- CC50 (MOLT-4; [7]): 4.71 µM
- TGI (MOLT-4; five-dose): 1.84 µM
- GI50 (HCC-2998; [5]): 5.89 µM
- LC50 (concentration causing 50% net cell kill) (HCC-2998; Homo sapiens, five-dose): 66.6 µM
- GI50 (HCC-2998; [6]): 16.4 µM
- TGI (HCC-2998; five-dose): 33.1 µM
- TGI (MKN74): 4.7 µM
- GI50 (MKN74; Homo sapiens, MKN-74): 1.8 µM
- CC50 (MKN74; Homo sapiens, MKN-74, read-out: LC50 (the source's name)): > 100 µM
- GI50 (UACC-257; [5]): 1.62 µM
- GI50 (UACC-257; [6]): 1.74 µM
- CC50 (UACC-257; [7]): 7.09 µM
- TGI (UACC-257; five-dose): 3.51 µM
- GI50 (OVCAR-3 [1]): 1.35 µM
- GI50 (MDA-MB-435; [5]): 1.91 µM
- GI50 (MDA-MB-435; [6]): 1.91 µM
- CC50 (MDA-MB-435; [7]): 5.76 µM
- TGI (MDA-MB-435; five-dose): 3.31 µM
- TGI (OVCAR-5): 3.4 µM
- GI50 (OVCAR-5; Homo sapiens): 1.9 µM
- CC50 (OVCAR-5; [8]): 6 µM
- GI50 (CCRF-CEM; [5]): 1.55 µM
- GI50 (CCRF-CEM; [6]): 1.08 µM
- CC50 (CCRF-CEM; [7]): > 100 µM
- TGI (CCRF-CEM; five-dose): 4.10 µM
- GI50 (SK-MEL-28; [5]): 4.27 µM
- GI50 (SK-MEL-28; [6]): 1.85 µM
- CC50 (SK-MEL-28; [7]): 6.18 µM
- TGI (SK-MEL-28; five-dose): 3.38 µM
- TGI (LOX-IMVI): 4.2 µM
- GI50 (LOX-IMVI; Homo sapiens): 0.86 µM
- CC50 (LOX-IMVI; [8]): > 100 µM
- GI50 (CAKI-1; [5]): 1.86 µM
- GI50 (CAKI-1; [6]): 1.61 µM
- CC50 (CAKI-1; [7]): 5.44 µM
- TGI (CAKI-1; five-dose): 2.96 µM
- GI50 (ACHN; [5]): 1.58 µM
- GI50 (ACHN; [6]): 1.46 µM
- CC50 (ACHN; [7]): 5.27 µM
- inhibition at 10 µM (ACHN; Homo sapiens, single dose 10 μM, read-out: growth inhibition): 94.3%
- TGI (ACHN; five-dose): 2.77 µM
- TGI (SNB-78): 3.4 µM
- GI50 (SNB-78; Homo sapiens): 1.7 µM
- CC50 (SNB-78; [8]): 6.9 µM
- GI50 (UO-31; [5]): 1.78 µM
- GI50 (UO-31; [6]): 1.62 µM
- CC50 (UO-31; [7]): 6.01 µM
- TGI (UO-31; five-dose): 3.12 µM
- GI50 (NCI-H322M; [5]): 36.3 µM
- GI50 (NCI-H322M; [6]): 17.4 µM
- CC50 (NCI-H322M; [7]): > 100 µM
- TGI (NCI-H322M; five-dose): 47.8 µM
- TGI (ST-4): 4.0 µM
- GI50 (ST-4; Homo sapiens): 2 µM
- CC50 (ST-4; [8]): 8 µM
- TGI (OVCAR-3 [2]): 2.0 µM
- GI50 (RXF 393; Homo sapiens, RXF393, Fig 7, read-out: mean log10 of the GI50 values (converted)): 1.74 µM
- GI50 (RXF 393; [6]): 1.75 µM
- CC50 (RXF 393; [7]): 14.6 µM
- TGI (RXF 393; five-dose): 4.40 µM
- GI50 (MDA-MB-468): 1.82 µM
- GI50 (LOX IMVI; Homo sapiens, LOXIMVI, Fig 7, read-out: mean log10 of the GI50 values (converted)): 0.912 µM
- GI50 (LOX IMVI; [6]): 0.82 µM
- CC50 (LOX IMVI; [7]): 4.86 µM
- TGI (LOX IMVI; five-dose): 2.13 µM
- TGI (NCI-H522 [3]): 3.0 µM
- GI50 (NCI-H522 [3]; Homo sapiens): 1.3 µM
- CC50 (NCI-H522 [3]; [8]): 6.7 µM
- GI50 (MDA-MB-231/ATCC; [5]): 2.14 µM
- GI50 (MDA-MB-231/ATCC; [6]): 1.75 µM
- CC50 (MDA-MB-231/ATCC; [7]): > 100 µM
- TGI (MDA-MB-231/ATCC; five-dose): 5.90 µM
- GI50 (NCI-H522 [4]; [5]): 2.24 µM
- GI50 (NCI-H522 [4]; [6]): 1.66 µM
- CC50 (NCI-H522 [4]; [7]): 9.31 µM
- TGI (NCI-H522 [4]; five-dose): 3.93 µM
- GI50 (COLO 205; Homo sapiens, COLO205, Fig 7, read-out: mean log10 of the GI50 values (converted)): 5.13 µM
- GI50 (COLO 205; [6]): 13.4 µM
- CC50 (COLO 205; [7]): 62.4 µM
- TGI (COLO 205; five-dose): 28.9 µM
- GI50 (SK-MEL-2; [5]): 2 µM
- GI50 (SK-MEL-2; [6]): 1.68 µM
- CC50 (SK-MEL-2; [7]): 22.5 µM
- TGI (SK-MEL-2; five-dose): 4.22 µM
- GI50 (KM12; [5]): 4.68 µM
- GI50 (KM12; [6]): 1.96 µM
- CC50 (KM12; [7]): 59.7 µM
- TGI (KM12; five-dose): 5.54 µM
- TGI (SNB-75): 3.9 µM
- GI50 (SNB-75; Homo sapiens): 2.2 µM
- CC50 (SNB-75; [8]): 7 µM
- TGI (NCI-H460): 13.0 µM
- GI50 (NCI-H460; Homo sapiens): 3.4 µM
- CC50 (NCI-H460; [8]): 67 µM
- GI50 (MCF7; [5]): 1.38 µM
- GI50 (MCF7; [6]): 1.53 µM
- CC50 (MCF7; [7]): 7.29 µM
- TGI (MCF7; five-dose): 3.34 µM
- GI50 (HCT-116; [5]): 2.34 µM
- GI50 (HCT-116; [6]): 1.93 µM
- CC50 (HCT-116; [7]): > 100 µM
- TGI (HCT-116; five-dose): 5.40 µM
